pEC50: −log10 of the molar value.
target: soluble guanylate cyclase (human GUCYA3 and GUCYB3) overexpressed in CHO cells (Homo sapiens (Human), UniProt Q02108+Q02153); test: CHO cellular assay (cGMP production, Cisbio cGMP HTRF kit); format: cell-based; conditions: CHO GUCY clone 8E10, cGMP production, assay buffer with 1 mM IBMX and 20 uM ODQ, 1 h room temperature; minimum quantification limit 0.5 nM (listed 0.5 nM means ≤0.5 nM); read-out: EC50
Outline: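 Stable CHO-K1 clone 8E10 expressing human sGC (GUCYA3/GUCYB3), 3000 cells/well, exposed 1 h at room temperature to activators in HBSS, 0.1% BSA, 1 mM IBMX, 20 uM ODQ, 0.5% DMSO final. cGMP was measured by HTRF and interpolated from a standard curve. EC50 came from a 4-parameter sigmoidal fit.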

Sequence of soluble guanylate cyclase (human GUCYA3 and GUCYB3) overexpressed in CHO cells (Q02108 whole entry partner): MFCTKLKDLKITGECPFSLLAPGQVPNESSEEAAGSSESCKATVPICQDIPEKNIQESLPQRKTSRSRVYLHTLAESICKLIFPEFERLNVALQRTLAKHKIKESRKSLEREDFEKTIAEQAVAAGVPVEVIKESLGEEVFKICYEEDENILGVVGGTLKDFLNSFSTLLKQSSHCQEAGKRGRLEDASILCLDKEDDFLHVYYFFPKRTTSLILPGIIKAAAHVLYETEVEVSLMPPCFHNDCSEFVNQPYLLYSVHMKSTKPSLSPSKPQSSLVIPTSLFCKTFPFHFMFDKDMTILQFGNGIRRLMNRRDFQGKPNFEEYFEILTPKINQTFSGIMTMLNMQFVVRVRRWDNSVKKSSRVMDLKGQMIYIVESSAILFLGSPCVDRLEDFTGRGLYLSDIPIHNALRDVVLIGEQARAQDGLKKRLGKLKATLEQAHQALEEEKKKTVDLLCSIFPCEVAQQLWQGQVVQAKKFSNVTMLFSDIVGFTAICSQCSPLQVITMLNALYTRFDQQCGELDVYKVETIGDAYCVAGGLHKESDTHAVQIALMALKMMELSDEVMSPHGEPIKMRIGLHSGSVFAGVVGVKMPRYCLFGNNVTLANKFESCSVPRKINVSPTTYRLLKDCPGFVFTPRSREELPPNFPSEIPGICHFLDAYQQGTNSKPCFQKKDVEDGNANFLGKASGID
Sequence of soluble guanylate cyclase (human GUCYA3 and GUCYB3) overexpressed in CHO cells (Q02153 whole entry): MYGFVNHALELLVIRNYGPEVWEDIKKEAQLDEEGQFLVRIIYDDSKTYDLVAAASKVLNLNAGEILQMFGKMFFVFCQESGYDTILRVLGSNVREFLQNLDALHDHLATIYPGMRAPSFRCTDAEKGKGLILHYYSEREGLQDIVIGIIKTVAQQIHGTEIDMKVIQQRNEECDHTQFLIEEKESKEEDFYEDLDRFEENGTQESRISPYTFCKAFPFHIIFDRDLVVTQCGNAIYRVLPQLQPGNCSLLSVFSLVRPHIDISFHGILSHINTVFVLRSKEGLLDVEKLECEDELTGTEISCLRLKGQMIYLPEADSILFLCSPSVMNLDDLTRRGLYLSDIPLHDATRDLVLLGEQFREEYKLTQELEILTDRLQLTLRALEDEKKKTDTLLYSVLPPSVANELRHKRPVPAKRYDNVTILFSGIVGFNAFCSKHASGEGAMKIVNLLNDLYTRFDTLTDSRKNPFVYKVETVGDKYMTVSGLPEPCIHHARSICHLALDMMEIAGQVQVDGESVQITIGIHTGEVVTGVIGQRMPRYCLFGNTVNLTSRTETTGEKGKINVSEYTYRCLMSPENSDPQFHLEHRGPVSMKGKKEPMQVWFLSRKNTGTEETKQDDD

Going from `Cc1nnc(N2CCC(c3ccc(NC4CCc5cccc(-c6cccc(-n7ncc(C(=O)O)c7C)n6)c54)c(C)c3)CC2)o1` (single isomer, unassigned; (-)) [58. b). (−), (−)-5-methyl-1-(6-(3-((2-methyl-4-(1-(5-methyl-1,3,4-oxadiazol-2-yl)piperidin-4-yl)phenyl)amino)-2,3-dihydro-1H-inden-4-yl)pyridin-2-yl)-1H-pyrazole-4-carboxylic acid] to `CCC(=O)N1CCC(c2ccc(NC3CCc4cccc(-c5cccc(-n6ncc(C(=O)O)c6C)n5)c43)c(C)c2)CC1` (single isomer, unassigned; (-)) [(−)-46-2], the pEC50 falls from 8.49 to 6.80 (1.69 log units).

`CCc1c(C(=O)O)cnn1-c1cccc(-c2cccc3c2N(Cc2ccc(C4CCN(C(=O)C5CC5)CC4)cc2C)CC3C)n1` (single isomer, unassigned; (-)) [(−)-20-2, (−)-1-(6-(1-(4-(1-(Cyclopropanecarbonyl)piperidin-4-yl)-2-methylbenzyl)-3-methylindolin-7-yl)pyridin-2-yl)-5-ethyl-1H-pyrazole-4-carboxylic acid] and `CCc1cc(NC2COc3cccc(-c4cccc(-n5ncc(C(=O)O)c5CC)n4)c32)ccc1C1CCN(C(=O)C2CC2)CC1` (single isomer, unassigned; (-)) [(−)-36-2, (−)-1-(6-(3-((4-(1-(Cyclopropanecarbonyl)piperidin-4-yl)-3-ethylphenyl)amino)-2,3-dihydrobenzofuran-4-yl)pyridin-2-yl)-5-ethyl-1H-pyrazole-4-carboxylic acid] are the same in pEC50: 9.00 for the first, 9.00 for the second.

`CCc1cc(NC2COc3cccc(-c4cccc(-n5ncc(C(=O)O)c5C(F)(F)F)n4)c32)ccc1C1CCN(C(=O)C2CC2)CC1` (single isomer, unassigned; (-)) [(−)-36-1, (−)-1-(6-(3-((4-(1-(Cyclopropanecarbonyl)piperidin-4-yl)-3-ethylphenyl)amino)-2,3-dihydrobenzofuran-4-yl)pyridin-2-yl)-5-(trifluoromethyl)-1H-pyrazole-4-carboxylic acid] and `CCc1cc(NC2CCc3cccc(-c4cccc(-n5ncc(C(=O)O)c5CC)n4)c32)ccc1C1CCN(C(=O)C2CC2)CC1` (single isomer, unassigned; (-)) [(−)-53-1, (−)-1-(6-(3-((4-(1-(cyclopropanecarbonyl)piperidin-4-yl)-3-ethylphenyl)amino)-2,3-dihydro-1H-inden-4-yl)pyridin-2-yl)-5-ethyl-1H-pyrazole-4-carboxylic acid] are within 0.2 log units of each other in pEC50: 7.70 for the first, 7.68 for the second.

Compared with `Cc1cc(C2CCN(C(=O)C(C)C)CC2)ccc1NC1CCc2cccc(-c3cccc(-n4ncc(C(=O)O)c4C)n3)c21` (single isomer, unassigned; (-)) [(−)-46-1, (−)-1-(6-(3-((4-(1-isobutyrylpiperidin-4-yl)-2-methylphenyl)amino)-2,3-dihydro-1H-inden-4-yl)pyridin-2-yl)-5-methyl-1H-pyrazole-4-carboxylic acid], `Cc1cc(C2CCN(C(=O)C3CC3)CC2)ccc1NC1CCc2cccc(-c3cccc(-n4ncc(C(=O)O)c4C)n3)c21` (single isomer, unassigned; (-)) [Example 7b, (−)-1-(6-(3-((4-(1-(Cyclopropanecarbonyl)piperidin-4-yl)-2-methylphenyl)amino)-2,3-dihydro-1H-inden-4-yl)pyridin-2-yl)-5-methyl-1H-pyrazole-4-carboxylic Acid] is 1.62 log units higher in pEC50: 7.00 for the first, 8.62 for the second.

Going from `Cc1cc(C2CCN(C(=O)CC3CC3)CC2)ccc1NC1CCc2cccc(-c3cccc(-n4ncc(C(=O)O)c4C)n3)c21` (single isomer, unassigned; (-)) [(−)-46-3, (−)-1-(6-(3-((4-(1-(2-Cyclopropylacetyl)piperidin-4-yl)-2-methylphenyl)amino)-2,3-dihydro-1H-inden-4-yl)pyridin-2-yl)-5-methyl-1H-pyrazole-4-carboylic acid] to `Cc1cc(C2CCN(C(=O)CC3CC3)CC2)c(F)cc1NC1CCc2cccc(-c3cccc(-n4ncc(C(=O)O)c4C)n3)c21` (single isomer, unassigned; (-)) [(−)-46-5, (−)-1-(6-(3-((4-(1-(2-Cyclopropylacetyl)piperidin-4-yl)-5-fluoro-2-methylphenyl)amino)-2,3-dihydro-1H-inden-4-yl)pyridin-2-yl)-5-methyl-1H-pyrazole-4-carboxylic acid], the pEC50 falls from 6.52 to 6.17 (0.35 log units).

Compared with `CCOC(=O)N1CCC(c2ccc(NC3CCc4cccc(-c5cccc(-n6ncc(C(=O)O)c6CC)n5)c43)cc2CC)CC1` (single isomer, unassigned; (-)) [(−)-52-1, (−)-1-(6-(3-((4-(1-(Ethoxycarbonyl)piperidin-4-yl)-3-ethylphenyl)amino)-2,3-dihydro-1H-inden-4-yl)pyridin-2-yl)-5-ethyl-1H-pyrazole-4-carboxylic acid], `CCc1cc(NC2CCc3cccc(-c4cccc(-n5ncc(C(=O)O)c5CC)n4)c32)ccc1C1CCN(C(=O)OC)CC1` (single isomer, unassigned; (-)) [(−)-52-2, (−)-5-Ethyl-1-(6-(3-((3-ethyl-4-(1-(methoxycarbonyl)piperidin-4-yl)phenyl)amino)-2,3-dihydro-1H-inden-4-yl)pyridin-2-yl)-1H-pyrazole-4-carboxylic acid] is 1.28 log units higher in pEC50: 7.72 for the first, 9.00 for the second.

Compared with `C=CCOC(=O)N1CCC(c2ccc(NC3CCc4cccc(-c5cccc(-n6ncc(C(=O)O)c6CC)n5)c43)cc2CC)CC1` (single isomer, unassigned; (-)) [(−)-52-3, (−)-1-(6-(3-((4-(1-((Allyloxy)carbonyl)piperidin-4-yl)-3-ethylphenyl)amino)-2,3-dihydro-1H-inden-4-yl)pyridin-2-yl)-5-ethyl-1H-pyrazole-4-carboxylic acid], `Cc1c(C(=O)O)cnn1-c1cccc(-c2cccc3c2C(Nc2ccc(C4CCN(C(=O)C5CC5)CC4)cc2)CC3)n1` (single isomer, unassigned; (-)) [Example 9. b). (−), (−)-1-(6-(3-((4-(1-(cyclopropanecarbonyl)piperidin-4-yl)phenyl)amino)-2,3-dihydro-1H-inden-4-yl)pyridin-2-yl)-5-methyl-1H-pyrazole-4-carboxylic acid] is 1.78 log units lower in pEC50: 8.52 for the first, 6.74 for the second.

Going from `Cc1cc(C2CCN(C(=O)CC3CC3)CC2)cc(F)c1NC1CCc2cccc(-c3cccc(-n4ncc(C(=O)O)c4C)n3)c21` (single isomer, unassigned; (-)) [(−)-53-3, (−)-1-(6(3-((4-(1-(2-cyclopropylacetyl)piperidin-4-yl)-2-fluoro-6-methylphenyl)amino)-2,3-dihydro-1H-inden-4-yl)pyridin-2-yl)-5-methyl-1H-pyrazole-4-carboxylic acid] to `Cc1cc(C2CCN(C(=O)C3CC3)CC2)ccc1NC1CCc2cccc(-c3cccc(-n4ncc(C(=O)O)c4C(F)F)n3)c21` (single isomer, unassigned; (-)) [(−)-53-4, (−)-1-(6-(3-((4-(1-(cyclopropanecarbonyl)piperidin-4-yl)-2-methylphenyl)amino)-2,3-dihydro-1H-inden-4-yl)pyridin-2-yl)-5-(difluoromethyl)-1H-pyrazole-4-carboxylic acid], the pEC50 rises from 7.23 to 7.62 (0.39 log units). The second is the more potent here.

For `Cc1cc(C2CCN(C(=O)C3CC3)CC2)ccc1NC1CCc2cccc(-c3cccc(-n4ncc(C(=O)O)c4C(F)(F)F)c3)c21` (single isomer, unassigned; (-)) [Example 6. b). (−), (−)-1-(3-(3-((4-(1-(cyclopropanecarbonyl)piperidin-4-yl)-2-methylphenyl)amino)-2,3-dihydro-1H-inden-4-yl)phenyl)-5-(trifluoromethyl)-1H-pyrazole-4-carboxylic acid], the pEC50 was 7.62.

Source: patent publication US10550102B2, “Indane and indoline derivatives and the use thereof as soluble guanylate cyclase activators” (NOVARTIS AG, priority 2014, dated 2020)
